This note sets out measurements from PubChem BioAssay (NCI).

Among the test systems are MOLT-4 leukemia; SF-295 CNS; HT29 colon; ACHN renal; SK-OV-3 ovarian; HOP-92 NSCLC; SW-620 colon; NCI-H226 lung; U251 CNS; HOP-62 NSCLC; NCI-H23 lung; MDA-MB-435; RXF 393 renal; SNB-75 CNS; HS 578T breast.
What all share (experiment): NCI anticancer screen, dose series, 48 h

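Protocol summary: plate cells (96-well), add compound at 5 concentrations, incubate 48 h, interpolate endpoints linearly. Abbreviation: GI50, concentration required for 50% inhibition of growth. TGI marks complete inhibition of growth.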 Where a SMILES comes first, the peptide text is derived from it. The star is where a group is joined. Boc = CC(C)(C)OC(=O)* A value given as a limit tells only on which side of the number the result lay.

Consider `COc1ccc(-c2c(C(C)=O)c(C)n(C3OC(COC(C)=O)C(OC(C)=O)C(OC(C)=O)C3OC(C)=O)c(=S)c2C#N)cc1` (stereo unspecified), for which the TGI is > 100 µM in the test on MOLT-4 leukemia; > 100 µM in the test on SF-295 CNS; > 100 µM in the test on HT29 colon; > 100 µM in the test with ACHN renal; > 100 µM in the test with SK-OV-3 ovarian; 84.6 µM with HOP-92 NSCLC. Also, the TGI in the test on SW-620 colon, with NCI-H226 lung, with U251 CNS, in the test with HOP-62 NSCLC, in the test with NCI-H23 lung and with MDA-MB-435 was > 100 µM in each case. Further, the TGI with RXF 393 renal and in the test with SNB-75 CNS was > 100 µM in each case.

`CC(=O)OC12c3ccccc3C(c3ccccc31)C1C(=O)N(c3ccccc3O)C(=O)C12` (stereo unspecified): the TGI with MOLT-4 leukemia, in the test on SF-295 CNS, in the test with HT29 colon, in the test with ACHN renal, in the test on SK-OV-3 ovarian and in the test on SW-620 colon was > 100 µM each time. Moreover, the TGI in the test with HS 578T breast, in the test with NCI-H226 lung, in the test on U251 CNS, in the test on HOP-62 NSCLC, with NCI-H23 lung and in the test on RXF 393 renal was > 100 µM each time. The TGI with SNB-75 CNS is > 100 µM.

As for `CC(=O)OCc1cc(OC(C)=O)c2cc3c(OC(C)=O)cccc3c(OC(C)=O)c2c1`, the TGI was > 100 µM in the test on MOLT-4 leukemia; 32.9 µM with SF-295 CNS; 43.9 µM in the test on HT29 colon; 34.2 µM in the test on ACHN renal; 41.1 µM with SK-OV-3 ovarian; 52.2 µM with HOP-92 NSCLC. Besides, the TGI came out at 44.2 µM in the test with SW-620 colon; 47.3 µM with NCI-H226 lung; 32 µM in the test with U251 CNS; 39.6 µM with HOP-62 NSCLC; 56.8 µM with NCI-H23 lung; 43.9 µM in the test on MDA-MB-435. The TGI in the test on SNB-75 CNS came to 45.2 µM.

For the compound `CNC(=O)CNC(=O)C(NC(=O)CNC(=O)C1CCCN1C(=O)C(C)NC(=O)C(NC(=O)OC(C)(C)C)C(C)C)C(C)C` (stereo unspecified) (Boc-VAPGVG-NHMe; configuration not given here), the TGI with MOLT-4 leukemia, in the test with SF-295 CNS, with HT29 colon, in the test with ACHN renal, in the test with SK-OV-3 ovarian and with HOP-92 NSCLC was > 100 µM throughout. For the same compound, the TGI in the test with SW-620 colon, in the test on U251 CNS, in the test on HOP-62 NSCLC, in the test on NCI-H23 lung, in the test with MDA-MB-435 and in the test on SNB-75 CNS was > 100 µM throughout.

Turning to `O=C1CCN(CCC(F)(F)C(F)(F)C(F)(F)C(F)(F)F)C(=S)N1`, the TGI in the test on MOLT-4 leukemia, in the test with SF-295 CNS, in the test on HT29 colon, in the test on ACHN renal, with SW-620 colon and in the test with NCI-H226 lung was > 100 µM each time. Moreover, the TGI with U251 CNS, with HOP-62 NSCLC, with NCI-H23 lung, in the test with RXF 393 renal and in the test with SNB-75 CNS was > 100 µM throughout.

As for `CCCCN(CCCC)C1(c2cc3ccccc3s2)CCCCC1`, the TGI amounted to 28.8 µM with MOLT-4 leukemia; 26.8 µM with SF-295 CNS; 27.5 µM in the test with HT29 colon; 30.3 µM in the test on ACHN renal; 36.3 µM with SK-OV-3 ovarian; 25.5 µM in the test with HOP-92 NSCLC. Besides, the TGI in the test with SW-620 colon amounted to 33.8 µM; with NCI-H226 lung, 33.9 µM; in the test on U251 CNS it was 31.4 µM; with HOP-62 NSCLC, 29.2 µM; with NCI-H23 lung, 29.5 µM; in the test on MDA-MB-435, 27.3 µM. For the same compound, the results for the TGI in the test on RXF 393 renal and in the test with SNB-75 CNS were 30.8 µM and 30.5 µM, respectively.

Turning to `O=c1[nH]ncc2[nH]c(-c3ccccc3)cc12`, the TGI with MOLT-4 leukemia, with SF-295 CNS, in the test on HT29 colon, in the test on ACHN renal, in the test on SK-OV-3 ovarian and with HOP-92 NSCLC was > 100 µM in each case. The TGI in the test on SW-620 colon, in the test on NCI-H226 lung, with U251 CNS, with HOP-62 NSCLC, with NCI-H23 lung and with MDA-MB-435 was > 100 µM throughout. The values for the TGI in the test on RXF 393 renal and in the test with SNB-75 CNS were 96.5 µM and 77 µM, respectively.

`Cn1c(=O)oc2cc(C(=O)CN3CCN(Cc4ccc5c(c4)OCO5)CC3)c(Cl)cc21`: the TGI in the test with MOLT-4 leukemia, in the test on SF-295 CNS, in the test with ACHN renal, with SK-OV-3 ovarian, with HS 578T breast and in the test on U251 CNS was > 100 µM throughout. In addition, the TGI in the test with HOP-62 NSCLC, with NCI-H23 lung, in the test on RXF 393 renal and in the test with SNB-75 CNS was > 100 µM each time.

With `Cc1cc2c(=O)c3ccc(Cl)cc3[nH]c2c(C(=O)O)c1C`, the TGI with MOLT-4 leukemia, with SF-295 CNS, in the test on HT29 colon, in the test with ACHN renal, in the test on SK-OV-3 ovarian and in the test with SW-620 colon was > 100 µM in each case. Further, the TGI in the test on NCI-H226 lung, in the test on U251 CNS, in the test with HOP-62 NSCLC, in the test with NCI-H23 lung, in the test with RXF 393 renal and in the test with SNB-75 CNS was > 100 µM throughout.

As for `CC1(C)CC(=O)c2c(nc3c(ccc4ccccc43)c2-c2ccc(NC(=O)CCCCCCCCC(=O)Nc3ccc(-c4c5c(nc6c4ccc4ccccc46)CC(C)(C)CC5=O)cc3)cc2)C1`, the TGI in the test with MOLT-4 leukemia, in the test on SF-295 CNS, in the test on HT29 colon, with ACHN renal, in the test on SK-OV-3 ovarian and with SW-620 colon was > 100 µM throughout. The TGI in the test with HS 578T breast, in the test with NCI-H226 lung, in the test on U251 CNS, in the test with HOP-62 NSCLC, in the test with MDA-MB-435 and in the test on SNB-75 CNS was > 100 µM throughout.

On to `CNC(=S)N/N=C(\C)c1cc(OC)c(OC)cc1O`, for which the TGI in the test on MOLT-4 leukemia, in the test on HT29 colon, in the test on ACHN renal, with SK-OV-3 ovarian, in the test on SW-620 colon and in the test with U251 CNS was > 100 µM in each case. The TGI in the test with HOP-62 NSCLC, in the test with MDA-MB-435, with RXF 393 renal and with SNB-75 CNS was > 100 µM throughout.

Regarding `COc1ccc(-c2cc(=O)c3cc4c(cc3[nH]2)OCO4)c(OC)c1`, the TGI in the test on MOLT-4 leukemia, in the test with SF-295 CNS, in the test with HT29 colon, in the test on ACHN renal, in the test on SK-OV-3 ovarian and with HOP-92 NSCLC was > 100 µM throughout. Also, the TGI in the test with SW-620 colon, in the test on NCI-H226 lung, with U251 CNS, in the test with HOP-62 NSCLC, with NCI-H23 lung and with RXF 393 renal was > 100 µM each time. For the same compound, in the test with SNB-75 CNS, the TGI turned out to be 31.2 µM. The GI50 is 46.2 µM in the test on SF-295 CNS, 93.5 µM in the test with NCI-H226 lung and 45.4 µM in the test with RXF 393 renal.

Take `CC(=O)OC12c3ccccc3C(c3ccccc31)C1C(=O)N(Nc3ccccc3)C(=O)C12` (stereo unspecified): the TGI in the test with MOLT-4 leukemia, with SF-295 CNS, with HT29 colon, in the test with ACHN renal, in the test with SK-OV-3 ovarian and in the test on SW-620 colon was > 100 µM throughout. The TGI in the test on HS 578T breast, in the test on NCI-H226 lung, in the test with U251 CNS, in the test with HOP-62 NSCLC, in the test on NCI-H23 lung and in the test with RXF 393 renal was > 100 µM in each case. For the same compound, in the test on SNB-75 CNS, the TGI was > 100 µM.

`CC(=O)c1cc2sc3ccccc3c2[nH]1`: the TGI in the test on MOLT-4 leukemia, in the test on SF-295 CNS, in the test with HT29 colon, in the test with ACHN renal, in the test on SK-OV-3 ovarian and with HOP-92 NSCLC was > 100 µM each time. The TGI with SW-620 colon, with U251 CNS, in the test on HOP-62 NSCLC, in the test on NCI-H23 lung, in the test on MDA-MB-435 and with RXF 393 renal was > 100 µM throughout.

For the compound `Nc1ccc(N=Nc2ccc(-c3ccc(N=Nc4c(S(=O)(=O)O)cc5cc(S(=O)(=O)O)c(N=Nc6ccc([N+](=O)[O-])cc6)c(N)c5c4O)cc3)cc2)c2cc(S(=O)(=O)O)ccc12`, the TGI in the test on MOLT-4 leukemia, with SF-295 CNS, with HT29 colon, in the test on ACHN renal, in the test with SK-OV-3 ovarian and in the test with HOP-92 NSCLC was > 100 µM in each case. Moreover, the TGI in the test with SW-620 colon, in the test on NCI-H226 lung, with U251 CNS, with HOP-62 NSCLC, in the test on NCI-H23 lung and in the test on RXF 393 renal was > 100 µM throughout. Moreover, the TGI in the test on SNB-75 CNS is > 100 µM.

Regarding `CC1=N/C(=C\c2ccc(N)cc2)C(=O)N1Nc1nnc(NN2C(=O)/C(=C/c3ccc(N)cc3)N=C2C)c2ccccc12`, the TGI with MOLT-4 leukemia was > 100 µM; in the test with SF-295 CNS it was 69.3 µM; in the test with HT29 colon, > 100 µM; in the test with ACHN renal, > 100 µM; with HOP-92 NSCLC, > 100 µM; in the test on SW-620 colon, > 100 µM. Besides, the TGI in the test with NCI-H226 lung is 56.5 µM; with U251 CNS it was > 100 µM; with HOP-62 NSCLC it was 64.3 µM; with NCI-H23 lung, > 100 µM; with RXF 393 renal it was > 100 µM; in the test on SNB-75 CNS it was > 100 µM.
